{
  "source": "paper PMC10938783",
  "about": "“A novel pan-PI3K inhibitor KTC1101 synergizes with anti-PD-1 therapy by targeting tumor suppression and immune activation” (Molecular Cancer, 2024)",
  "tested_on": "B16 cells gene expression",
  "assay": "RNA-Seq (DEGs, GSEA, heatmaps) of B16 cells",
  "settings": "KTC1101 0.2μM, B16 cells, GSEA KEGG",
  "data": [
    {"smiles": "COc1cc(N)cc2c1nc(C(F)F)n2-c1nc(N2CCCOCC2)nc(N2CCOCC2)n1", "note": "[KTC1101, 2-(difluoromethyl)-4-methoxy-1-(4-morpholino-6-(1,4-oxazepan-4-yl)-1,3,5-triazin-2-yl)-1H-benzo[d]imidazol-6-amine]", "values": [
      {"measurement": "NES, mmu04970 Salivary secretion", "result": 1.144},
      {"measurement": "NES, mmu04972 Pancreatic secretion", "result": 0.9417},
      {"measurement": "NES, mmu05017 Spinocerebellar ataxia", "result": -1.093},
      {"measurement": "NES, mmu05031 Amphetamine addiction", "result": 1.031},
      {"measurement": "NES, mmu05034 Alcoholism", "result": 0.984},
      {"measurement": "NES, mmu05100 Bacterial invasion of epithelial cells", "result": 0.6338},
      {"measurement": "NES, mmu05132 Salmonella infection", "result": -1.08},
      {"measurement": "NES, mmu05133 Pertussis", "result": 0.6182},
      {"measurement": "NES, mmu05134 Legionellosis", "result": 1.026},
      {"measurement": "NES, mmu05135 Yersinia infection", "result": 0.5197},
      {"measurement": "NES, mmu05145 Toxoplasmosis", "result": 1.047},
      {"measurement": "NES, mmu05160 Hepatitis C", "result": -0.848},
      {"measurement": "NES, mmu05162 Measles", "result": 1.0518},
      {"measurement": "NES, mmu05165 Human papillomavirus infection", "result": 0.8359},
      {"measurement": "NES, mmu05170 Human immunodeficiency virus 1 infection", "result": 0.8557},
      {"measurement": "NES, mmu05200 Pathways in cancer", "result": 1.059},
      {"measurement": "NES, mmu05203 Viral carcinogenesis", "result": 0.855},
      {"measurement": "NES, mmu05204 Chemical carcinogenesis - DNA adducts", "result": -1.166},
      {"measurement": "NES, mmu05206 MicroRNAs in cancer", "result": 1.025},
      {"measurement": "NES, mmu05207 Chemical carcinogenesis - receptor activation", "result": 0.9371},
      {"measurement": "NES, mmu05210 Colorectal cancer", "result": 0.7382},
      {"measurement": "NES, mmu05211 Renal cell carcinoma", "result": -0.9675},
      {"measurement": "NES, mmu05212 Pancreatic cancer", "result": -0.9022},
      {"measurement": "NES, mmu05213 Endometrial cancer", "result": -1.003},
      {"measurement": "NES, mmu05214 Glioma", "result": 0.9787},
      {"measurement": "NES, mmu05216 Thyroid cancer", "result": 0.6447},
      {"measurement": "NES, mmu05218 Melanoma", "result": 1.185},
      {"measurement": "NES, mmu05219 Bladder cancer", "result": 0.8356},
      {"measurement": "NES, mmu05220 Chronic myeloid leukemia", "result": 0.9551},
      {"measurement": "NES, mmu05223 Non-small cell lung cancer", "result": -0.8178},
      {"measurement": "NES, mmu05231 Choline metabolism in cancer", "result": 1.119},
      {"measurement": "NES, mmu05235 PD-L1 expression and PD-1 checkpoint pathway in cancer", "result": 0.9645},
      {"measurement": "NES, mmu05412 Arrhythmogenic right ventricular cardiomyopathy", "result": 1.0322},
      {"measurement": "NES, mmu05416 Viral myocarditis", "result": 0.9628},
      {"measurement": "NES, mmu05417 Lipid and atherosclerosis", "result": 1.128},
      {"measurement": "enrichmentScore, mmu00071 Fatty acid degradation", "result": 0.2512},
      {"measurement": "enrichmentScore, mmu00310 Lysine degradation", "result": -0.1985},
      {"measurement": "enrichmentScore, mmu00380 Tryptophan metabolism", "result": 0.4505},
      {"measurement": "enrichmentScore, mmu00500 Starch and sucrose metabolism", "result": -0.3977},
      {"measurement": "enrichmentScore, mmu00510 N-Glycan biosynthesis", "result": -0.1868},
      {"measurement": "enrichmentScore, mmu00513 Various types of N-glycan biosynthesis", "result": 0.3555},
      {"measurement": "enrichmentScore, mmu00514 Other types of O-glycan biosynthesis", "result": 0.426},
      {"measurement": "enrichmentScore, mmu00562 Inositol phosphate metabolism", "result": -0.271},
      {"measurement": "enrichmentScore, mmu00564 Glycerophospholipid metabolism", "result": -0.1904},
      {"measurement": "enrichmentScore, mmu00600 Sphingolipid metabolism", "result": -0.2721},
      {"measurement": "enrichmentScore, mmu00860 Porphyrin metabolism", "result": -0.354},
      {"measurement": "enrichmentScore, mmu00980 Metabolism of xenobiotics by cytochrome P450", "result": -0.3932},
      {"measurement": "enrichmentScore, mmu00982 Drug metabolism - cytochrome P450", "result": -0.394},
      {"measurement": "enrichmentScore, mmu01250 Biosynthesis of nucleotide sugars", "result": -0.3381},
      {"measurement": "enrichmentScore, mmu01522 Endocrine resistance", "result": 0.2781},
      {"measurement": "enrichmentScore, mmu01523 Antifolate resistance", "result": -0.26},
      {"measurement": "enrichmentScore, mmu02010 ABC transporters", "result": -0.2376},
      {"measurement": "enrichmentScore, mmu03008 Ribosome biogenesis in eukaryotes", "result": 0.1194},
      {"measurement": "enrichmentScore, mmu03015 mRNA surveillance pathway", "result": -0.1312},
      {"measurement": "enrichmentScore, mmu03018 RNA degradation", "result": -0.2392},
      {"measurement": "enrichmentScore, mmu03022 Basal transcription factors", "result": -0.1746},
      {"measurement": "enrichmentScore, mmu03040 Spliceosome", "result": -0.1926},
      {"measurement": "enrichmentScore, mmu03060 Protein export", "result": -0.3667},
      {"measurement": "enrichmentScore, mmu03082 ATP-dependent chromatin remodeling", "result": 0.1455},
      {"measurement": "enrichmentScore, mmu03083 Polycomb repressive complex", "result": 0.08375},
      {"measurement": "enrichmentScore, mmu03250 Viral life cycle - HIV-1", "result": -0.1606},
      {"measurement": "enrichmentScore, mmu03410 Base excision repair", "result": 0.1698},
      {"measurement": "enrichmentScore, mmu03420 Nucleotide excision repair", "result": -0.1542},
      {"measurement": "enrichmentScore, mmu03430 Mismatch repair", "result": -0.1664},
      {"measurement": "enrichmentScore, mmu03460 Fanconi anemia pathway", "result": -0.2915},
      {"measurement": "enrichmentScore, mmu04014 Ras signaling pathway", "result": -0.2302},
      {"measurement": "enrichmentScore, mmu04068 FoxO signaling pathway", "result": 0.2292},
      {"measurement": "enrichmentScore, mmu04070 Phosphatidylinositol signaling system", "result": -0.1821},
      {"measurement": "enrichmentScore, mmu04071 Sphingolipid signaling pathway", "result": -0.1806},
      {"measurement": "enrichmentScore, mmu04115 p53 signaling pathway", "result": 0.2436},
      {"measurement": "enrichmentScore, mmu04120 Ubiquitin mediated proteolysis", "result": -0.1841},
      {"measurement": "enrichmentScore, mmu04130 SNARE interactions in vesicular transport", "result": -0.1753},
      {"measurement": "enrichmentScore, mmu04136 Autophagy - other", "result": 0.2123},
      {"measurement": "enrichmentScore, mmu04137 Mitophagy - animal", "result": -0.2835},
      {"measurement": "enrichmentScore, mmu04140 Autophagy - animal", "result": -0.2},
      {"measurement": "enrichmentScore, mmu04144 Endocytosis", "result": 0.1533},
      {"measurement": "enrichmentScore, mmu04146 Peroxisome", "result": 0.2695},
      {"measurement": "enrichmentScore, mmu04148 Efferocytosis", "result": 0.2467},
      {"measurement": "enrichmentScore, mmu04150 mTOR signaling pathway", "result": -0.2361},
      {"measurement": "enrichmentScore, mmu04152 AMPK signaling pathway", "result": -0.2382},
      {"measurement": "enrichmentScore, mmu04210 Apoptosis", "result": 0.1949}
    ]}
  ]
}
